These are literature values, as cited in patent US11382927B2, “Liquid medicinal preparation” (FUJIFILM Corporation, priority 2016, dated 2022).

For the data set, the system named is tumor. The settings on record: oral administration to mice.

For the molecule `Nc1ccn([C@@H]2S[C@H](CO)[C@@H](O)[C@@H]2F)c(=O)n1` [Compound A, 1-(2-deoxy-2-fluoro-4-thio-β-D-arabinofuranosyl)cytosine], the Antitumor activity result was “strong antitumor activity”.
